Values quoted from earlier work in patent US4966768A, “Sustained release etodolac” (priority 1988, dated 1990).
“Also recorded” adds a separate entry of the source.

Experiments:
adjuvant arthirtis = conditions: reported in U.S. Pat. No. 4,533,551
[1] = in vivo

difference in solubility between pH 5 and 7 (between pH 5 to 7): thirty
Compound: CCc1cccc2c3c([nH]c12)C(CC)(CC(=O)O)OCC3 (centres unmarked) [Etodolac, 1,8-diethyl-1,3,4,9-tetrahydropyrano[3,4-b] indole-1-acetic acid]
activity in adjuvant arthritis (in words) (adjuvant arthirtis): active in the treatment of adjuvant arthirtis
aqueous solubility (in words) (below pH 3): very low and pH independent below pH 3; also recorded: water insoluble to an appreciable extent below pH 3
aqueous solubility with rising pH (in words) (up to pH 5 and from pH 5 to 7): gradually increases with rising pH up to 5 and linearly increases with increasing pH to 7
reported pharmacological properties (in words) [1]: analgesic and anti-inflammatory properties
